# Laboratory results reported in ChEMBL document CHEMBL4359906, “Design and synthesis of new N-terminal fatty acid modified-antimicrobial peptide analogues with potent in vitro biological activity” (Eur J Med Chem, 2019).
# Calls of active or inactive are those of the source. The calls are words filed in the database; no cut-off is given here.
# Tests used:
# Staphylococcus aureus [1] = assay: Ratio of antibacterial activity against Staphylococcus aureus ATCC 25923 in presence of NaCl to antibacterial activity against Staphylococcus aureus ATCC 25923; assay type: functional
# Escherichia coli [2] = assay: Potentiation of polymyxin B-induced antibacterial activity against Escherichia coli ATCC 25922 assessed as FICI after 18 hrs by checker board assay; assay type: functional
# [3] = Selectivity index, ratio of MHC10 for human RBC to geometric mean of peptide MIC for gram positive bacteria; assay type: toxicity; details: human red blood cells, read-out: Selectivity Index
# Escherichia coli [4] = assay: Antibiofilm activity against Escherichia coli ATCC 25922 after 24 hrs by crystal violet staining based assay; assay type: functional, organism-based
# Escherichia coli [5] = assay: Disruption of membrane integrity in Escherichia coli ATCC 25922 assessed as membrane damage by measuring PI fluorescence incubated for 1 hr by PI dye based flow cytometric analysis; assay type: functional, organism-based
# Escherichia coli [6] = assay: Disruption of membrane integrity in Escherichia coli ATCC 25922 assessed as membrane damage by measuring PI fluorescence at 4 times of MIC incubated for 1 hr by PI dye based flow cytometric analysis (reference value: 1.35%); assay type: functional
# Erythrocyte = assay: Hemolytic activity in human RBC measured after 1 hr by microplate reader analysis; assay type: ADME, cell-based
# Bacillus subtilis = assay: Antibacterial activity against Bacillus subtilis ATCC 23857 after 18 hrs by CLSI based broth microdilution method; assay type: functional; details: ATCC 23857, 18 h
# Staphylococcus aureus [7] = assay: Ratio of antibacterial activity against Staphylococcus aureus ATCC 25923 in presence of MgCl2 to antibacterial activity against Staphylococcus aureus ATCC 25923; assay type: functional
# Pseudomonas aeruginosa [8] = assay: Antibacterial activity against Pseudomonas aeruginosa ATCC 27853 after 18 hrs by CLSI based broth microdilution method; assay type: functional; details: ATCC 27853, 18 h
# Pseudomonas aeruginosa [9] = assay: Potentiation of polymyxin B-induced antibacterial activity against Pseudomonas aeruginosa ATCC 27853 assessed as FICI after 18 hrs by checker board assay; assay type: functional
# Escherichia coli [10] = assay: Antibacterial activity against Escherichia coli ATCC 25922 at 0.5 times MIC incubated for 18 hrs measured for 15 passages by CLSI based broth microdilution method; assay type: functional, organism-based
# Pseudomonas aeruginosa [11] = assay: Antibiofilm activity against Pseudomonas aeruginosa ATCC 27853 after 24 hrs by crystal violet staining based assay; assay type: functional, organism-based
# [12] = Selectivity index, ratio of MHC10 for human RBC to geometric mean of peptide MIC for gram negative bacteria; assay type: toxicity; details: human red blood cells, read-out: Selectivity Index
# Klebsiella pneumoniae [13] = assay: Potentiation of rifampicin-induced antibacterial activity against Klebsiella pneumoniae ATCC 700603 assessed as FICI after 18 hrs by checker board assay; assay type: functional
# Escherichia coli [14] = assay: Induction of membrane disruption in Escherichia coli ATCC 25922 assessed as rough membrane surface at 4 times of MIC after 2 hrs by SEM analysis; assay type: functional, organism-based
# Escherichia coli [15] = assay: Induction of inner membrane permeabilization in Escherichia coli ATCC 43837 assessed as increase in ONPG release at 1 to 2 times of MIC by ONPG dye based assay; assay type: organism-based
# Escherichia coli [16] = assay: Ratio of MIC for Escherichia coli ATCC 25922 preincubated for 6 hrs in presence of 10% mouse serum and measured after 18 hrs to MIC for antibacterial activity against Escherichia coli ATCC 25922 after 18 hrs; assay type: functional
# Escherichia coli [17] = assay: Antibacterial activity against Escherichia coli ATCC 43837 after 18 hrs by CLSI based broth microdilution method; assay type: functional; details: ATCC 43837, 18 h
# Escherichia coli [18] = assay: Induction of membrane disruption in Escherichia coli ATCC 25922 assessed as corrugated membrane surface at 4 times of MIC after 2 hrs by SEM analysis; assay type: functional, organism-based
# Escherichia coli [19] = assay: Induction of membrane disruption in Escherichia coli ATCC 25922 assessed as fracture in membrane at 4 times of MIC after 2 hrs by SEM analysis; assay type: functional, organism-based
# Pseudomonas aeruginosa [20] = assay: Antibiofilm activity against Pseudomonas aeruginosa ATCC 27853 at 0.25 to 2 times of MIC after 24 hrs by crystal violet staining based assay; assay type: functional, organism-based
# Escherichia coli [21] = assay: Induction of ROS generation in Escherichia coli ATCC 25922; assay type: functional, organism-based
# Pseudomonas aeruginosa [22] = assay: Potentiation of rifampicin-induced antibacterial activity against Pseudomonas aeruginosa ATCC 27853 assessed as FICI after 18 hrs by checker board assay; assay type: functional
# Klebsiella pneumoniae [23] = assay: Potentiation of polymyxin B-induced antibacterial activity against Klebsiella pneumoniae ATCC 700603 assessed as FICI after 18 hrs by checker board assay; assay type: functional
# Escherichia coli [24] = assay: Antibiofilm activity against Escherichia coli ATCC 25922 at 2 times MIC after 24 hrs by crystal violet staining based assay; assay type: functional, organism-based
# Escherichia coli [25] = assay: Antimicrobial activity against Escherichia coli ATCC 25922 at 1 mM preincubated for 6 hrs in presence of 2 ug/ml chymotrypsin and measured after 18 hrs by microplate reader analysis; assay type: functional, organism-based
# Staphylococcus aureus [26] = assay: Antibacterial activity against Staphylococcus aureus ATCC 25923 after 18 hrs by CLSI based broth microdilution method; assay type: functional; details: ATCC 25923, 18 h
# Escherichia coli [27] = assay: Ratio of antibacterial activity against Escherichia coli ATCC 25922 in presence of KCl to antibacterial activity against Escherichia coli ATCC 25922; assay type: functional
# Escherichia coli [28] = assay: Potentiation of rifampicin-induced antibacterial activity against Escherichia coli ATCC 25922 assessed as FICI after 18 hrs by checker board assay; assay type: functional
# Escherichia coli [29] = assay: Induction of membrane disruption in Escherichia coli ATCC 25922 assessed as degeneration in membrane at 4 times of MIC after 2 hrs by SEM analysis; assay type: functional, organism-based
# Staphylococcus aureus [30] = assay: Antibacterial activity against methicillin-resistant Staphylococcus aureus 936 after 18 hrs by CLSI based broth microdilution method; assay type: functional; details: Staphylococcus aureus, 936, 18 h
# Escherichia coli [31] = assay: Antimicrobial activity against Escherichia coli ATCC 25922 at 1 mM preincubated for 6 hrs in presence of 2000 ug/ml trypsin and measured after 18 hrs by microplate reader analysis; assay type: functional, organism-based
# Escherichia coli [32] = assay: Ratio of antibacterial activity against Escherichia coli ATCC 25922 in presence of NaCl to antibacterial activity against Escherichia coli ATCC 25922; assay type: functional
# Escherichia coli [33] = assay: Antibacterial activity against Escherichia coli ATCC 25922 after 18 hrs by CLSI based broth microdilution method; assay type: functional; details: ATCC 25922, 18 h
# Escherichia coli [34] = assay: Ratio of antibacterial activity against Escherichia coli ATCC 25922 in presence of MgCl2 to antibacterial activity against Escherichia coli ATCC 25922; assay type: functional
# Staphylococcus aureus [35] = assay: Antibiofilm activity against Staphylococcus aureus ATCC 25923 after 24 hrs by crystal violet staining based assay; assay type: functional, organism-based
# Staphylococcus aureus [36] = assay: Ratio of antibacterial activity against Staphylococcus aureus ATCC 25923 in presence of KCl to antibacterial activity against Staphylococcus aureus ATCC 25923; assay type: functional
# Escherichia coli [37] = assay: Ratio of antibacterial activity against Escherichia coli ATCC 25922 in presence of FeCl3 to antibacterial activity against Escherichia coli ATCC 25922; assay type: functional
# Escherichia coli [38] = assay: Disruption of membrane integrity in Escherichia coli ATCC 25922 assessed as membrane damage by measuring PI fluorescence at 2 times of MIC incubated for 1 hr by PI dye based flow cytometric analysis (reference value: 1.35%); assay type: functional
# Staphylococcus aureus [39] = assay: Ratio of antibacterial activity against Staphylococcus aureus ATCC 25923 in presence of FeCl3 to antibacterial activity against Staphylococcus aureus ATCC 25923; assay type: functional
compound,measurement,setting,value
CCCCCCCCCC(=O)NC(Cc1cn(CCCC[C@H](NC(C)=O)C(=O)NCC(=O)N[C@@H](CC(C)C)C(=O)N[C@@H](CC(C)C)C(=O)N[C@H](CCCCN)C(=O)N[C@@H](CCCNC(=N)N)C(=O)N[C@H](C(=O)N[C@H](CCCCN)C(=O)N[C@H](C(=O)N[C@@H](CC(C)C)C(=O)N[C@@H](CC(C)C)C(N)=O)[C@@H](C)O)[C@@H](C)CC)nn1)C(=O)NCC(=O)N[C@@H](CC(C)C)C(=O)N[C@@H](CC(C)C)C(=O)N[C@H](CCCCN)C(=O)N[C@@H](CCCNC(=N)N)C(=O)N[C@H](C(=O)N[C@H](CCCCN)C(=O)N[C@H](C(=O)N[C@@H](CC(C)C)C(=O)N[C@@H](CC(C)C)C(N)=O)[C@@H](C)O)[C@@H](C)CC (some centres not stated),Ratio,Staphylococcus aureus [1],2 - 4
same,fractional inhibitory concentration index (FICI),Escherichia coli [2],0.3125
same,selectivity ratio,[3],3.69
same,inhibition,Escherichia coli [4],Dose-dependent effect
same,Activity,Escherichia coli [5],Dose-dependent effect
same,Activity,Escherichia coli [6],82.3%
same,MHC10,Erythrocyte,32 µM
same,MIC,Bacillus subtilis,2 µM
same,Ratio,Staphylococcus aureus [7],2 - 4
same,MIC,Pseudomonas aeruginosa [8],8 µM
same,fractional inhibitory concentration index (FICI),Pseudomonas aeruginosa [9],0.25
same,Activity,Escherichia coli [10],Active
same,inhibition,Pseudomonas aeruginosa [11],Dose-dependent effect
same,selectivity ratio,[12],3.2
same,fractional inhibitory concentration index (FICI),Klebsiella pneumoniae [13],0.5
same,Activity,Escherichia coli [14],Active
same,Activity,Escherichia coli [15],Active
same,Ratio,Escherichia coli [16],2
same,MIC,Escherichia coli [17],8 µM
same,Activity,Escherichia coli [18],Active
same,Activity,Escherichia coli [19],Active
same,inhibition,Pseudomonas aeruginosa [20],Active
same,Activity,Escherichia coli [21],inactive
same,fractional inhibitory concentration index (FICI),Pseudomonas aeruginosa [22],0.5625
same,fractional inhibitory concentration index (FICI),Klebsiella pneumoniae [23],0.5625
same,inhibition,Escherichia coli [24],Active
same,Activity,Escherichia coli [25],Active
same,MIC,Staphylococcus aureus [26],8 µM
same,Ratio,Escherichia coli [27],2 - 4
same,fractional inhibitory concentration index (FICI),Escherichia coli [28],0.3125
same,Activity,Escherichia coli [29],Active
same,MIC,Staphylococcus aureus [30],16 µM
same,Activity,Escherichia coli [31],Active
same,Ratio,Escherichia coli [32],2 - 4
same,MIC,Escherichia coli [33],8 µM
same,Ratio,Escherichia coli [34],2 - 4
same,inhibition,Staphylococcus aureus [35],Dose-dependent effect
same,Ratio,Staphylococcus aureus [36],2 - 4
same,Ratio,Escherichia coli [37],2 - 4
same,Activity,Escherichia coli [38],56.3%
same,Ratio,Staphylococcus aureus [39],2 - 4
CCCCCC(=O)NC(Cc1cn(CCCC[C@H](NC(C)=O)C(=O)NCC(=O)N[C@@H](CC(C)C)C(=O)N[C@@H](CC(C)C)C(=O)N[C@H](CCCCN)C(=O)N[C@@H](CCCNC(=N)N)C(=O)N[C@H](C(=O)N[C@H](CCCCN)C(=O)N[C@H](C(=O)N[C@@H](CC(C)C)C(=O)N[C@@H](CC(C)C)C(N)=O)[C@@H](C)O)[C@@H](C)CC)nn1)C(=O)NCC(=O)N[C@@H](CC(C)C)C(=O)N[C@@H](CC(C)C)C(=O)N[C@H](CCCCN)C(=O)N[C@@H](CCCNC(=N)N)C(=O)N[C@H](C(=O)N[C@H](CCCCN)C(=O)N[C@H](C(=O)N[C@@H](CC(C)C)C(=O)N[C@@H](CC(C)C)C(N)=O)[C@@H](C)O)[C@@H](C)CC (some centres not stated),Ratio,Staphylococcus aureus [1],2 - 4
same,fractional inhibitory concentration index (FICI),Escherichia coli [2],0.375
same,selectivity ratio,[3],11.6
same,inhibition,Escherichia coli [4],Dose-dependent effect
same,Activity,Escherichia coli [5],Dose-dependent effect
same,Activity,Escherichia coli [6],38.5%
same,MHC10,Erythrocyte,> 256 µM
same,MIC,Bacillus subtilis,4 µM
same,Ratio,Staphylococcus aureus [7],2 - 4
same,MIC,Pseudomonas aeruginosa [8],8 µM
same,fractional inhibitory concentration index (FICI),Pseudomonas aeruginosa [9],0.3125
same,Activity,Escherichia coli [10],Active
same,inhibition,Pseudomonas aeruginosa [11],Dose-dependent effect
same,selectivity ratio,[12],51.2
same,fractional inhibitory concentration index (FICI),Klebsiella pneumoniae [13],0.5625
same,Activity,Escherichia coli [14],Active
same,Activity,Escherichia coli [15],Active
same,Ratio,Escherichia coli [16],2
same,MIC,Escherichia coli [17],8 µM
same,Activity,Escherichia coli [18],Active
same,Activity,Escherichia coli [19],Active
same,inhibition,Pseudomonas aeruginosa [20],Active
same,Activity,Escherichia coli [21],inactive
same,fractional inhibitory concentration index (FICI),Pseudomonas aeruginosa [22],0.5
same,fractional inhibitory concentration index (FICI),Klebsiella pneumoniae [23],0.1875
same,inhibition,Escherichia coli [24],Active
same,Activity,Escherichia coli [25],Active
same,MIC,Staphylococcus aureus [26],64 µM
same,Ratio,Escherichia coli [27],2 - 4
same,fractional inhibitory concentration index (FICI),Escherichia coli [28],0.5625
same,Activity,Escherichia coli [29],Active
same,MIC,Staphylococcus aureus [30],64 µM
same,Activity,Escherichia coli [31],Active
same,Ratio,Escherichia coli [32],2 - 4
same,MIC,Escherichia coli [33],8 µM
same,Ratio,Escherichia coli [34],2 - 4
same,inhibition,Staphylococcus aureus [35],Dose-dependent effect
same,Ratio,Staphylococcus aureus [36],2 - 4
same,Ratio,Escherichia coli [37],2 - 4
same,Activity,Escherichia coli [38],22.4%
same,Ratio,Staphylococcus aureus [39],2 - 4
